Patent publication US20130243700A1, “Proteomic Antisense Molecular Shield and Targeting” (priority 2005, published 2013)

Assays:
platelets = test: platelet adhesion to FN or FNPEG-5K immobilized on tissue culture plates; type: cell-based, human; conditions: protein immobilized onto tissue culture plates; fluorescently labeled platelets
Method: As mentioned previously, FN itself has the ability to mediate adhesion of platelets. To test whether this binding potential was eliminated following mPEG-aldehyde derivatization, FN and FNPEG-5K were immobilized onto tissue culture plates. Fluorescently labeled human […] and adhesion was assessed.

vascular wall components = test: platelet adhesion to damaged blood vessels; type: cell-based
Method: (§1) Since the modified FNPEG-5K retained the collagen binding properties of native FN while lacking its intrinsic platelet activating properties, the ability of this reagent to block platelet adherence to collagen was investigated. To test this, type I collagen was adsorbed to tissue culture plates. Native FN or FNPEG-5K were then incubated with the immobilized collagen and washed. Platelet adhesion was then assessed.

[1] = target: plate-immobilized collagen (Homo sapiens, UniProt P02452+P08123); test: collagen binding study with iodinated FN and FNPEG-5K; conditions: iodinated protein; compared with native FN
Sequence of plate-immobilized collagen (P02452 162-1218 limits assumed): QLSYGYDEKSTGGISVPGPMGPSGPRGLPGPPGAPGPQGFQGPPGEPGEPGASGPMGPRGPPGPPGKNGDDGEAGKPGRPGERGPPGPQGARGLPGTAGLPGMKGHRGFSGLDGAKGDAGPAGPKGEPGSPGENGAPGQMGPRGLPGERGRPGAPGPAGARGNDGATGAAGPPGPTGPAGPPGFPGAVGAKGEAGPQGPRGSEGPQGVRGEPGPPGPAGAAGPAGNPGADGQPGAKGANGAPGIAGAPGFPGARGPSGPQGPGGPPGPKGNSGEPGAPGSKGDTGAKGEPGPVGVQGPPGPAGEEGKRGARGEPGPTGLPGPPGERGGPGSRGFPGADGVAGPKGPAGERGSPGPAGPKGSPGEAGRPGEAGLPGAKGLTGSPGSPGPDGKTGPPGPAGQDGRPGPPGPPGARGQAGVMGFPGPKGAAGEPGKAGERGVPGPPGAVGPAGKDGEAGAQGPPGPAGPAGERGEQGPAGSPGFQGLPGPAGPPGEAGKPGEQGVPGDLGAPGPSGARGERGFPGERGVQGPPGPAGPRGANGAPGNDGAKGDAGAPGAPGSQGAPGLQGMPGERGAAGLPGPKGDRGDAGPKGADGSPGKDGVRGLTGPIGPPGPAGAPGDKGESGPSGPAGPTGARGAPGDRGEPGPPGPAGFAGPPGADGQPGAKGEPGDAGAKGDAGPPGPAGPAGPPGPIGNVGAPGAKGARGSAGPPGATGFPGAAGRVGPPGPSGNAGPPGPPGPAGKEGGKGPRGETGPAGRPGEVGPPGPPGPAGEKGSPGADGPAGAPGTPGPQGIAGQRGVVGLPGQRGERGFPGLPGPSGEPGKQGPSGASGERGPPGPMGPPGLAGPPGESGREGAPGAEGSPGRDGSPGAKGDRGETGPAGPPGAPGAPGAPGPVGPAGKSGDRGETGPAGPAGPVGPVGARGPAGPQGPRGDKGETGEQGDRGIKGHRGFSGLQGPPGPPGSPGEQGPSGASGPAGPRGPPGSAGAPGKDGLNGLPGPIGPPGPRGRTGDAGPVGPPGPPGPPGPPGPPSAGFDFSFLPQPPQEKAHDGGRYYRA
Sequence of plate-immobilized collagen (P08123 80-1119 limits assumed): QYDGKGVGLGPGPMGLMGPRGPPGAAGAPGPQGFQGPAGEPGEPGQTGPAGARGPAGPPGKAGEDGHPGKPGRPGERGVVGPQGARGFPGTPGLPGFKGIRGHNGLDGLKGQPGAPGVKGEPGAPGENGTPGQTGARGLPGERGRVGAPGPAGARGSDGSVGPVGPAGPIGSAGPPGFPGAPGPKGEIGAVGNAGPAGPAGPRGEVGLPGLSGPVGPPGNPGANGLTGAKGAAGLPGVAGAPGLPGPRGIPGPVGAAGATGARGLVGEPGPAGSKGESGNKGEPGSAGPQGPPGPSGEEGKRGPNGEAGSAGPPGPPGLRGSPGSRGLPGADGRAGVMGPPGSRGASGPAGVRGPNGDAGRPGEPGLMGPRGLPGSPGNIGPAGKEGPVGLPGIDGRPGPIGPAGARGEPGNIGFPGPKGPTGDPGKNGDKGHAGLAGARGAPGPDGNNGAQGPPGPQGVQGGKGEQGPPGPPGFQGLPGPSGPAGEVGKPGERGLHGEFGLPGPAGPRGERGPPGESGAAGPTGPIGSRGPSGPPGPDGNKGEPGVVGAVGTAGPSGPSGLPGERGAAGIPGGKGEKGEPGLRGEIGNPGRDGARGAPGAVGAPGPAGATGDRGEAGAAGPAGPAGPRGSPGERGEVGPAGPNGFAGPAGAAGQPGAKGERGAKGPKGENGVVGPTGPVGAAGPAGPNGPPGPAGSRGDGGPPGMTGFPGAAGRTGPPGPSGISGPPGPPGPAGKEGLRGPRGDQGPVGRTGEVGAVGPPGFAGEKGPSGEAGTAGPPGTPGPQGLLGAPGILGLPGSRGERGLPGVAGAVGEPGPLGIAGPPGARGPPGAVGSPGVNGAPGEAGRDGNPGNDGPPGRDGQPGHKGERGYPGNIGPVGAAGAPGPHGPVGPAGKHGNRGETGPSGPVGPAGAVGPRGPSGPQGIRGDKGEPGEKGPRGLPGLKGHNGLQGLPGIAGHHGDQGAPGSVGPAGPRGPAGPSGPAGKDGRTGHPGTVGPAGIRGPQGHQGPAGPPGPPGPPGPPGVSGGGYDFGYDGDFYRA
Method: Purified FN was then reabsorbed to gelatin agarose. Sodium cyanoborohydride and mPEG-aldehyde (MW 5,000) were added to the resin-bound FN. […] Following this reaction and subsequent washing away of the reactants, the protein was eluted from the gelatin agarose matrix. Using this reaction sequence, the collagen binding sites within FN were not modified by the pegylation. […] To test whether the modified forms of FN retained the collagen-binding properties of native FN, binding studies using iodinated FN and FNPEG-5K were undertaken. […] Thus, the key collagen-binding properties of FN were not inhibited by this targeted modification approach.

type I collagen = type I collagen (Homo sapiens, UniProt P02452+P08123); test: platelet adhesion to type I collagen adsorbed to tissue culture plates after incubation with FN or FNPEG-5K; type: cell-based; conditions: incubated with the protein and washed
Sequence of type I collagen (P02452 162-1218 limits assumed): as the sequence (P02452 162-1218 limits assumed) above
Sequence of type I collagen (P08123 80-1119 limits assumed): as the sequence (P08123 80-1119 limits assumed) above
Method: as §1

[2] = tested on: blood vessel wall molecules; test: incubation of damaged blood vessels with biotinylated bioconjugate; type: binding; conditions: biotinylated form
Method: To further assess the ECM-binding properties FNPEG-5K, damaged blood vessels were incubated with a biotinylated form of bioconjugate.

inhibition of platelet binding to type I collagen (type I collagen): potently inhibited
Substance: FNPEG-5K: human plasma fibronectin pegylated on lysine residues with mPEG-aldehyde (MW 5,000) by reductive amination while bound to gelatin agarose
binding to platelets (platelet adhesion to immobilized protein) (platelets): markedly attenuated
blocking of platelet adhesion to vascular wall components (vascular wall components): blocks platelet adhesion to vascular wall components
binding to plate-immobilized collagen [1]: bound plate-immobilized collagen in a manner similar to native FN
coating of blood vessel wall molecules (ECM binding) [2]: coats blood vessel wall molecules
